Data taken from ChEMBL document CHEMBL1201862, “PubChem BioAssay data set” (2004).
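Following 48 hours of exposure in 96-well plates, responses at five concentrations were used to interpolate endpoints linearly. GI50 = concentration required for 50% inhibition of growth.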 Activity calls are given as the source filed them. No stated cut-off is given here; in the data, active = GI50 up to about 1.1 µM and inactive = higher.

How the values were obtained:
Assay in all cases: DTP human tumour cell line panel, 48 h
[1] = system: RXF 393
[2] = system: Malme-3M
[3] = system: HT-29
[4] = system: SF-268
[5] = system: OVCAR-5
[6] = system: SK-MEL-5
[7] = system: Hs-578T
[8] = system: HCT-15
[9] = system: NCI/ADR-RES
[10] = system: T47D
[11] = system: HOP-92
[12] = system: HOP-62
[13] = system: KM12
[14] = system: PC-3
[15] = system: UACC-62
[16] = system: RPMI-8226
[17] = system: OVCAR-4
[18] = system: SK-MEL-28
[19] = system: A549
[20] = system: HCC 2998
[21] = system: HCT-116
[22] = system: SR
[23] = system: SF-295
[24] = system: SF-539
[25] = system: BT-549
[26] = system: UO-31
[27] = system: HL-60
[28] = system: M14
[29] = system: NCI-H23
[30] = system: SNB-75
[31] = system: COLO 205
[32] = system: U-251
[33] = system: ACHN
[34] = system: UACC-257
[35] = system: LOX IMVI
[36] = system: NCI-H460
[37] = system: A498
[38] = system: SN12C
[39] = system: NCI-H226
[40] = system: SK-MEL-2
[41] = system: IGROV-1
[42] = system: 786-0
[43] = system: SK-OV-3
[44] = system: SNB-19
[45] = system: K562
[46] = system: SW-620
[47] = system: MDA-MB-435
[48] = system: EKVX
[49] = system: MCF7
[50] = system: MOLT-4
[51] = system: CAKI-1
[52] = system: TK-10
[53] = system: NCI-H522
[54] = system: MDA-MB-231
[55] = system: OVCAR-3
[56] = system: DU-145
[57] = system: CCRF-CEM
[58] = system: OVCAR-8

SMILES: O=C1c2ccccc2S(=O)(=O)c2c1cccc2[N+](=O)[O-]
- GI50 [1]: 2.9 µM (inactive)
- GI50 [2]: 1.46 µM (inactive)
- GI50 [3]: 2.57 µM (inactive)
- GI50 [4]: 3.05 µM (inactive)
- GI50 [5]: 3.45 µM (inactive)
- GI50 [6]: 0.643 µM (active)
- GI50 [7]: 4.25 µM (inactive)
- GI50 [8]: 1.35 µM
- GI50 [9]: 2.38 µM (inactive)
- GI50 [10]: 2.37 µM (inactive)
- GI50 [11]: 4.49 µM (inactive)
- GI50 [12]: 5.32 µM (inactive)
- GI50 [13]: 2.15 µM (inactive)
- GI50 [14]: 3.01 µM (inactive)
- GI50 [15]: 1.72 µM (inactive)
- GI50 [16]: 1.63 µM (inactive)
- GI50 [17]: 2.12 µM (inactive)
- GI50 [18]: 2 µM (inactive)
- GI50 [19]: 4.7 µM (inactive)
- GI50 [20]: 5.77 µM (inactive)
- GI50 [21]: 1.3 µM (inactive)
- GI50 [22]: 0.902 µM (active)
- GI50 [23]: 8.99 µM (inactive)
- GI50 [24]: 1.94 µM (inactive)
- GI50 [25]: 3.45 µM (inactive)
- GI50 [26]: 2 µM (inactive)
- GI50 [27]: 1.33 µM (inactive)
- GI50 [28]: 1.61 µM (inactive)
- GI50 [29]: 3.5 µM (inactive)
- GI50 [30]: 3.42 µM (inactive)
- GI50 [31]: 1.16 µM (inactive)
- GI50 [32]: 2.65 µM (inactive)
- GI50 [33]: 2.44 µM (inactive)
- GI50 [34]: 1.87 µM (inactive)
- GI50 [35]: 2.14 µM (inactive)
- GI50 [36]: > 5.83 µM (inactive)
- GI50 [37]: 4.66 µM (inactive)
- GI50 [38]: 2.2 µM (inactive)
- GI50 [39]: > 7.26 µM (inactive)
- GI50 [40]: 5.85 µM (inactive)
- GI50 [41]: 1.9 µM (inactive)
- GI50 [42]: 1.52 µM (inactive)
- GI50 [43]: > 6.62 µM (inactive)
- GI50 [44]: > 10 µM (inactive)
- GI50 [45]: > 10 µM (inactive)
- GI50 [46]: 1.61 µM (inactive)
- GI50 [47]: 1.59 µM (inactive)
- GI50 [48]: 3.35 µM (inactive)
- GI50 [49]: 1.25 µM (inactive)
- GI50 [50]: 1.85 µM (inactive)
- GI50 [51]: 4.21 µM (inactive)
- GI50 [52]: 5.69 µM (inactive)
- GI50 [53]: 1.18 µM (inactive)
- GI50 [54]: 2.29 µM (inactive)
- GI50 [55]: 1.22 µM (inactive)
- GI50 [56]: 4.79 µM (inactive)
- GI50 [57]: 1.51 µM (inactive)
- GI50 [58]: 2.1 µM (inactive)

SMILES: CCc1nc(N)nc(N)c1-c1ccc([N+](=O)[O-])c(Cl)c1
- GI50 [1]: 16.1 µM (inactive)
- GI50 [2]: > 100 µM (inactive)
- GI50 [3]: 1.78 µM (inactive)
- GI50 [4]: 4.29 µM (inactive)
- GI50 [5]: 25.2 µM (inactive)
- GI50 [6]: 2.19 µM (inactive)
- GI50 [7]: 32.4 µM (inactive)
- GI50 [8]: 1.35 µM
- GI50 [9]: 5.83 µM (inactive)
- GI50 [10]: 39.5 µM (inactive)
- GI50 [11]: 18.2 µM (inactive)
- GI50 [12]: 7.53 µM (inactive)
- GI50 [13]: 6.87 µM (inactive)
- GI50 [14]: 1.87 µM (inactive)
- GI50 [15]: 1.73 µM (inactive)
- GI50 [16]: 8.36 µM (inactive)
- GI50 [17]: 46.5 µM (inactive)
- GI50 [18]: 36.5 µM (inactive)
- GI50 [19]: 0.416 µM (active)
- GI50 [20]: 10 µM (inactive)
- GI50 [21]: 0.457 µM (active)
- GI50 [22]: 1.74 µM (inactive)
- GI50 [23]: 2.59 µM (inactive)
- GI50 [24]: 3.76 µM (inactive)
- GI50 [25]: 14.9 µM (inactive)
- GI50 [26]: 9.04 µM (inactive)
- GI50 [27]: 0.855 µM (active)
- GI50 [28]: 2.65 µM (inactive)
- GI50 [29]: 3.56 µM (inactive)
- GI50 [30]: 28.2 µM (inactive)
- GI50 [31]: 12.5 µM (inactive)
- GI50 [32]: 3.1 µM (inactive)
- GI50 [33]: 2.73 µM (inactive)
- GI50 [34]: 31 µM (inactive)
- GI50 [35]: 1.44 µM (inactive)
- GI50 [36]: 0.42 µM (active)
- GI50 [37]: 27 µM (inactive)
- GI50 [38]: 13.3 µM (inactive)
- GI50 [39]: 30.4 µM (inactive)
- GI50 [40]: 34.7 µM (inactive)
- GI50 [41]: 3.31 µM (inactive)
- GI50 [42]: 1.77 µM (inactive)
- GI50 [43]: 27.5 µM (inactive)
- GI50 [44]: 17.9 µM (inactive)
- GI50 [45]: 0.227 µM (active)
- GI50 [46]: 1.49 µM (inactive)
- GI50 [47]: 1.99 µM (inactive)
- GI50 [48]: 5.74 µM (inactive)
- GI50 [49]: 4.55 µM (inactive)
- GI50 [50]: 4.27 µM (inactive)
- GI50 [51]: 4.55 µM (inactive)
- GI50 [52]: 24.9 µM (inactive)
- GI50 [53]: 6.1 µM (inactive)
- GI50 [54]: 37.3 µM (inactive)
- GI50 [55]: 11.5 µM (inactive)
- GI50 [56]: 10.8 µM (inactive)
- GI50 [57]: 2.36 µM (inactive)
- GI50 [58]: 3.7 µM (inactive)
